From patent publication US20050288371A1, “Treatment of neuropathic pain, fibromyalgia or rheumatoid arthritis” (H. Lundbeck A/S, priority 2004, published 2005)

Key:
[1] = background statement on known drugs; cited from earlier work
formalin pain model = format: in vivo; settings: s.c. test drug 30 min or 2 h before the test
From the text: The formalin pain model is a well-established animal model of persistent somatic pain (Dubuisson, D. and Dennis, S. G. Pain 4, 1977, 161-174). It has been described as a model of clinical inflammatory pain (Tjølsen, A. and Hole, K, In: Dickenson, A. H. and Besson, J.-M. R., Editors, 1997, The Pharmacology of Pain, Springer-Verlag, Berlin, 1-20). Formalin injected subcutaneously in a hind paw produces initially a local stimulation of the nociceptors; this is referred to as phase 1. This is followed by inflammatory processes and nerve sensitization (phase 2). The latter phase models the neuropathic pain condition. A number of drugs are active in the model, e.g. morphine and in particular antiepileptic drugs (e.g. gabapentin, lamotrigine, carbamazepine) that have shown beneficial effects in clinical neuropathic states. However, these treatments are accompanied by troublesome side effects. The non-steroid antiinflammatory drugs (NSAIDs) that are used for treatment of inflammatory processes in tissue and have relatively weak effects on neuropathic pain conditions have weak activity in the formalin model.
Fifty microliters of 2.5% formalin were administered subcutaneously (s.c.) into the plantar region of the right hind-paw. […] The total time the animal spent licking, biting or shaking the injected paw was recorded. […]

For `NC(=O)N1c2ccccc2C=Cc2ccccc21` [carbamazepine], the “activity in the formalin model” value [1] is listed as “active”.
For `NCC1(CC(=O)O)CCCCC1` [gabapentin], the “activity in the formalin model” value [1] is listed as “active”.
With `Oc1noc2c1CCNC2` [gaboxadol] the “inhibition of the pain response in phase 1” value (formalin pain model; phase 1 (0-5 min after formalin injection)) was “potent and dose dependent inhibition of the pain response in phase 1” and the “inhibition of the pain response in phase 2” value (formalin pain model; phase 2 (20-30 min after formalin injection)) was “potently inhibited the pain response in phase 2, in a dose dependent manner”.
For `Nc1nnc(-c2cccc(Cl)c2Cl)c(N)n1` [lamotrigine], the “activity in the formalin model” value [1] is listed as “active”.
In the case of `CN1CC[C@]23c4c5ccc(O)c4O[C@H]2[C@@H](O)C=C[C@H]3[C@H]1C5` [morphine], the “activity in the formalin model” value [1] is given as “active”.
